The text below walks through data of patent US9175077B2, “Nucleic acids encoding biologically active polypeptides derived from a novel early stage pregnancy factor designated maternin (MA)” (NOBEL BIOSCIENCES LLC, priority 1999, dated 2015).

Experiment [1] relates to SIVMAC 251. In words: SIVMAC 251 infected rhesus macaques. It is filed as in vivo. To be noted: end-stage disease. An excerpt:
Certain strains of SIV produce an AIDS-like illness in susceptible monkeys. Among them SIVMAC 251 induces disease in rhesus monkeys similar to AIDS in humans only with much greater rapidity.^174 Therapy with purified MA of 3 monkeys with end-stage disease infected 13-14 mos earlier was initiated when the animals were losing weight, highly viremic (plasma virus 0.5 to 3×10^6 copies of SIV RNA/ml by NASBA), and developing pancytopenia. […] In contrast, most untreated animals died by this period. Though the limitation of animal number precludes strong conclusions related to survival.
Far more impressive were experiments performed soon after infection (3 weeks). In these experiments, crude urinary preparations containing MA, but not crude fractions lacking MA, were inoculated subcutaneously. Using a 10^4.5 TCID50 of cell free SIVmac 251, the characteristic rise in SIV p27, reduction of CD4+ T-cells, and weight loss, which occurred in the untreated animals, was prevented in MA treated animals. The untreated animals died before 6 mos. […] However, stopping therapy led to rapid onset of virus production and development of AIDS-like disease.

For experiment [2], the system named is HIV-1 transgene expression. Nature of the experiment: HIV-1 transgenic rats. It counts as in vivo. An excerpt: Because of the extraordinary effects of MA in the mouse modes, we were concerned that the results might be peculiar to the model. Consequently, an HIV-1 transgenic rat model was developed. An additional advantage of the rat model is the larger size of the animals, enabling direct inoculation of MA into the developing pups rather than therapy being indirect (the lactating mother) and limited to the lactation phase. Thus, the transgenic rats can be followed and treated much longer.
Like the transgenic mice, the transgenic rats contain HIV-1 provirus PNNL 4-3, again deleted in gag/pol, and also develop hyperkeratosis. Additionally, they develop tissue fibrosis, inflammatory changes, and some histopathology more similar to human AIDS than in the mouse model, but unlike the HIV-1 transgenic mice the effect is usually not lethal. The changes correlate with expression of HIV-1 proteins. The transgenic rats are more fully described in copending U.S. patent application Ser. No. 09/058,113, by Bryant et al., filed Apr. 9, 1998, entitled “HIV Transgenic Animals and Uses Therefor,” the entire disclosure of which is incorporated herein by reference.
Inoculation (subcutaneous) of a 250-300 gm mother with 300 pmoles of MA for 10 days began after birth of the pups. […]

For experiment [3], the system named is primary human tumor cells. Nature of the experiment: Short-term cultured primary human tumor cells, growth and apoptosis. It counts as cell-based. To be noted: 200 ng/ml; 3 days culture; 10% serum. An excerpt: Because cell lines might be more susceptible to growth inhibition and apoptosis, the effects of MA on short-term cultured human tumor cells were investigated. The cells were obtained from biopsied specimens and immediately cultured (primary cultures). The results were similar to the results with tumor cell lines. […] FIG. 3, Panels A and B are representative results with primary breast and prostate carcinomas respectively. These pro-apoptotic effects of MA on human tumor cells were with 10% serum rather than the lower concentrations sometimes used to make cells more susceptible to apoptosis.
More extensive studies of primary human tumor cells were carried out utilizing confocal microscopy.
With the exception of the kidney carcinoma, which was a biopsy sample direct from the tumor, the samples were from pleural effusions which developed after metastasis to the lung. The breast, prostate, and colon carcinomas were freshly obtained and immediately cultured, whereas the lung and kidney carcinomas went through 22 and 18 passes respectively before they were used in these studies. All cells were examined after 3 days culture in the presence or absence of MA (200 ng/ml) or other treatments. […]

Experiment [4] relates to Lewis lung (LL) carcinoma cells. Nature of the experiment: Pro-apoptotic effect on cultured Lewis lung carcinoma cells. It is filed as cell-based, mouse. To be noted: same dose range as cultured human tumor cells. The protocol:
B16 melanoma and Lewis lung (LL) carcinoma cells were first shown to be susceptible to the pro-apoptotic effects of MA (FIG. 6, Panels C and D) at the same dose range used with cultured human tumor cells. The tumor cells grown in standard culture conditions were used to generate metastatic cancers in pathogen-free 6-8 week old C57/BL mice (Charles River). In one set of experiments, the animals were treated with MAS1 or MAS2 at two doses, 0.1 ug or 1.0 ug either in a pre-treatment protocol (two subcutaneous inoculations 24 and 48 hrs before transplanting the tumor cells).

“Also recorded” adds a separate entry of the source.

Take “VVCNYRDVRFESIRLPGCPRGVNPVVSYAVALSCQ [MA]”: the “weight and T-cell number” value in experiment [1] is “stabilization and in some instances even increase”. Also, in experiment [1] (0.2 mg/kg 3 times weekly, 6 mos), the “change in SIV titer” value is recorded as “no significant change”. Also, the “deaths in observation period” value in experiment [1] (6 mos) is “none of the 3 animals died”. Further, the survival and development result in experiment [2] (300 pmoles to mother for 10 days, then direct subcutaneous inoculation) is given as “survived, developed normally”. Also, the transgene expression entry in experiment [2] (rat, in vivo) is “markedly reduced”. In addition, in experiment [3], the “growth inhibition and apoptosis of primary human tumor cells” value was “inhibited growth and induced apoptosis; also recorded: Rapid induction of apoptosis”. Besides, the “susceptibility to pro-apoptotic effects” value in experiment [4] was “susceptible”.
